Patent US11098042B2, “Inhibitors of influenza virus replication and uses thereof” (SUNSHINE LAKE PHARMA CO., LTD., priority 2017, dated 2021)

Columns and labels:
[1] = test system: virus H1N1 A/Weiss/43; assay: microbe, parasite or virus in culture; type: cell-based; conditions: Influenza A virus, 120 h; inhibition of CPE of H1N1 A/Weiss/43 in MDCK cells, 5 days, CCK-8
[2] = in vivo; conditions: Sprague-Dawley (SD), rat
Protocol: Pharmacokinetic characteristics of the compounds of the invention in SD rat were evaluated. The compounds disclosed herein were administered in form of a saline solution containing 5% DMSO, 5% Kolliphor HS 15 and 90% Saline. For intravenous administration (iv), the animals were administered with a dose of 1 mg/kg, and blood samples (0.3 mL) were collected at the time points of 0.083, 0.25, 0.5, 1.0, 2.0, 5.0, 7.0 and 24 h after drug administration, then each blood sample was processed to separate plasma by centrifugation at 3000 rpm or 4000 rpm for 10 minutes. […] Plasma samples were collected and stored at −20° C. or −70° C. until LC/MS/MS analysis.

SMILES | EC50 [1] [nM] | other results
O=C(O)C1C2CCC(CC2)C1Nc1cc(-c2ccco2)nc(-c2n[nH]c3ncc(Cl)cc23)n1 (racemic) [Example 1, (+/−)-trans-3-((2-(5-chloro-1H-pyrazolo[3,4-b]pyridin-3-yl)-6-(furan-2-yl)pyrimidin-4-yl)amino)bicyclo[2.2.2]octane-2-carboxylic Acid] | 0.059 | –
O=C(O)C1C2CCC(CC2)C1Nc1nc(-c2n[nH]c3ncc(Cl)cc23)nc(-c2ccco2)c1F (racemic) [Example 2, (+/−)-trans-3-((2-(5-chloro-1H-pyrazolo[3,4-b]pyridin-3-yl)-5-fluoro-6-(furan-2-yl)pyrimidin-4-yl)amino)bicyclo[2.2.2]octane-2-carboxylic Acid] | 0.054 | AUC(0-inf) ([2]; iv, 1 mg/kg): 910 ng·h/mL; AUC(0-t) ([2]; iv, 1 mg/kg): 909 ng·h/mL; clearance ([2]; iv, 1 mg/kg): 18.5 mL/min/kg; AUC(0-inf) ([2]; po, 5 mg/kg): 1060 ng·h/mL; AUC(0-t) ([2]; po, 5 mg/kg): 1060 ng·h/mL
Cn1ccc2c(NC3C4CCC(CC4)C3C(=O)O)nc(-c3n[nH]c4ncc(Cl)cc34)nc21 (racemic) [Example 3, (+/−)-trans-3-((2-(5-chloro-1H-pyrazolo[3,4-b]pyridin-3-yl)-7-methyl-7H-pyrrolo[2,3-d]pyrimidin-4-yl)amino)bicyclo[2.2.2]octane-2-carboxylic Acid] | 0.39 | –
O=C(O)C1C2CCC(CC2)C1Nc1cc(-c2cc3ccccc3o2)nc(-c2n[nH]c3ncc(Cl)cc23)n1 (racemic) [Example 14, (+/−)-trans-3-((6-(benzofuran-2-yl)-2-(5-chloro-1H-pyrazolo[3,4-b]pyridin-3-yl)pyrimidin-4-yl)amino)bicyclo[2.2.2]octane-2-carboxylic Acid] | 0.696 | –
O=C(O)C1C2CCC(CC2)C1Nc1cc(-c2ccccc2)nc(-c2n[nH]c3ncc(Cl)cc23)n1 (racemic) [Example 16, (+/−)-trans-3-((2-(5-chloro-1H-pyrazolo[3,4-b]pyridin-3-yl)-6-phenylpyrimidin-4-yl)amino)bicyclo[2.2.2]octane-2-carboxylic Acid] | 0.14 | –
O=C(O)C1C2CCC(CC2)C1Nc1cc(-c2cccs2)nc(-c2n[nH]c3ncc(Cl)cc23)n1 (racemic) [Example 29, (+/−)-trans-3-((2-(5-chloro-1H-pyrazolo[3,4-b]pyridin-3-yl)-6-(thiophen-2-yl)pyrimidin-4-yl)amino)bicyclo[2.2.2]octane-2-carboxylic Acid] | 0.203 | –
O=C(O)C1C2CCC(CC2)C1Nc1cc(C2CC2)nc(-c2n[nH]c3ncc(Cl)cc23)n1 (racemic) [Example 30, (+/−)-trans-3-((2-(5-chloro-1H-pyrazolo[3,4-b]pyridin-3-yl)-6-cyclopropylpyrimidin-4-yl)amino)bicyclo[2.2.2]octane-2-carboxylic Acid] | 0.35 | –
O=C(O)C1C2CCC(CC2)C1Nc1cc(-c2ccc3ccccc3c2)nc(-c2n[nH]c3ncc(Cl)cc23)n1 (racemic) [Example 31, (+/−)-trans-3-((2-(5-chloro-1H-pyrazolo[3,4-b]pyridin-3-yl)-6-(naphthalene-2-yl)pyrimidin-4-yl)amino)bicyclo[2.2.2]octane-2-carboxylic Acid] | 0.513 | –
CC(C)(C)[C@@H](CC(=O)O)Nc1nc(-c2n[nH]c3ncc(Cl)cc23)nc(-c2ccco2)c1F [Example 4, (R)-3-((2-(5-chloro-1H-pyrazolo[3,4-b]pyridin-3-yl)-5-fluoro-6-(furan-2-yl)pyrimidin-4-yl)amino)-4,4-dimethylpentanoic Acid] | 0.075 | –
O=C(O)[C@H]1C2CCC(CC2)[C@@H]1Nc1cc(-c2ccc(C3CC3)o2)nc(-c2n[nH]c3ncc(F)cc23)n1 [Example 15, (2S,3S)-3-((6-(5-cyclopropylfuran-2-yl)-2-(5-fluoro-1H-pyrazolo[3,4-b]pyridin-3-yl)pyrimidin-4-yl)amino)bicyclo[2.2.2]octane-2-carboxylic Acid] | 0.303 | –
CC(C)n1ccc2c(N[C@H]3C4CCC(CC4)[C@@H]3C(=O)O)nc(-c3n[nH]c4ncc(F)cc34)nc21 [Example 34, (2S,3S)-3-((2-(5-fluoro-1H-pyrazolo[3,4-b]pyridin-3-yl)-7-isopropyl-7H-pyrrolo[2,3-d]pyrimidin-4-yl)amino)bicyclo[2.2.2]octane-2-carboxylic Acid] | 0.227 | –
